Measured values published in patent publication US9243076B2 (PIERRE FABRE MEDICAMENT, priority 2004, dated 2016).

Tests used:
[1] = Dissolution of the powder in aqueous solution (equivalent of 4 g/l piroxicam, sample after 15 min, HPLC); type: physicochemical; conditions: equivalent of 4 g/l of piroxicam in aqueous solution at 37° C.
[2] = 2:1 (v/v) dioxane:water mixture; cited from earlier work

CN1C(C(=O)Nc2ccccn2)=C(O)c2ccccc2S1(=O)=O [piroxicam]
Dissolution of the piroxicam (g/l) [1]: less than 0.2 g/l
Dissolution of the piroxicam ([1]; listed as Piroxicam): <0.2 g/L
pKa value of the enol functional group [2]: ~2
